The values that follow come from ChEMBL document CHEMBL5252652, “Benzo[b]naphtho[2,1-d]furans and 2-Phenylnaphthalenes from Streblus usambarensis” (J Nat Prod, 2023).

≈ marks a conversion by molar mass, not a printed value.

Series [1] deals with MCF7. The series is described as follows: Cytotoxicity against human MCF7 cells assessed as reduction in cell viability incubated for 24 hrs by PrestoBlue reagent based fluorescence assay. As to conditions: mcf7, 24 h. The class given is toxicity.
Series [2] has as its system Bacillus subtilis. Nature of the series: Antibacterial activity against Bacillus subtilis assessed as inhibition of bacterial growth incubated for 4 to 20 hrs by resazurin based microplate reader analysis. In kind it is functional. As to conditions: time 4-20 hrs.

Turning to `CC1(C)C=Cc2c(-c3ccc4ccc(O)cc4c3)ccc(O)c2O1`, in series [1], the Activity result is recorded as “Non-Toxic”. Besides, the MIC in series [2] is 9 µM (≈ 2.87 µg/mL). Consider `COc1c(O)cc2c(oc3c4cc(O)ccc4ccc23)c1CC=C(C)C`, for which the Activity entry in series [1] is reported as “Non-Toxic”. On the same count and under the same terms, in the case of `COc1ccc2ccc3c4cc(O)c(OC)c(CC=C(C)C)c4oc3c2c1` it was “Non-Toxic”.
